{"source": "patent US20160166531A1", "about": "“METHODS AND COMPOSITIONS FOR TREATING CARDIOVASCULAR DISORDERS” (Zafgen, Inc., priority 2010, published 2016)", "key": {"[1]": {"system": "FGF-21", "assay": "R&D Systems Quantikine Mouse FGF-21 Immunoassay, plasma FGF-21 after ten days of treatment", "type": "in vivo", "from_the_text": "In Table 1, animals #1.1, 1.2, 1.3, 2.1, 2.2 and 2.3 were vehicle-treated and animal #3.1, 3.2, 3.3, 4.1, 4.2 and 4.3 were ZGN-201-treated. Sample 3.1 was above the level of quantification.\nFIG. 4 indicates the average (±SEM) plasma FGF-21 levels for all study groups."}, "[2]": {"system": "PCSK9", "assay": "Liver mRNA levels of PCSK9 in treated mice", "type": "in vivo", "details": "C57BL/6 mice, at day 3 and after (FIG. 5)", "from_the_text": "Liver mRNA levels of PCSK9 were examined in C57BL/6 mice treated with ZGN-201. FIG. 5 depicts the hepatic PCSK9 mRNA (% of vehicle control) vs. days of treatment with ZGN-201."}, "[3]": {"system": "C57BL/6 mice conditioned on a high fat diet", "assay": "Oral fumagillin in mice conditioned on a high fat diet (DIO)", "type": "in vivo", "from_the_text": "Oral administration of the MetAP2 inhibitor fumagillin causes an increase in circulating ketone bodies, as measured by concentration of beta hydroxybutyrate, which indicates an increase in the breakdown of stored fat and activation of ketogenesis."}, "[4]": {"system": "C-Reactive Protein (CRP)", "assay": "Serum C-Reactive Protein in obese patients, intravenous twice weekly for 26 days", "type": "in vivo, human", "procedure": "(§1) The compound was intravenously administered to each patient of a cohort (except for a placebo cohort) twice weekly for 26 days. Each of patients in the three non-placebo cohorts received either 0.1 mg/m^2 (cohort 1); 0.3 mg/m^2 (cohort 2); or 0.9 mg/m^2 (cohort 3) doses of the compound at the time of administration. The trial was conducted under the appropriate government and medical supervision."}, "[5]": {"system": "low density lipoprotein cholesterol (LDLc)", "details": "obese patients of Example 6 (FIG. 8)", "procedure": "as §1"}, "[6]": {"system": "apolipoprotein(a) (apoLp(a))", "assay": "Apolipoprotein(a) levels in obese patients", "type": "in vivo, human", "details": "obese patients of Example 6 (FIG. 9)", "from_the_text": "The expression of another cardiovascular risk marker, apolipoprotein(a) (apoLp(a)), was examined in the patients described in Example 6. […] Similarly to Example 6, the reduction in apoLp(a) was independent of effects on body weight."}, "[7]": {"system": "thrombomodulin", "assay": "Thrombomodulin levels in obese patients", "type": "in vivo, human", "details": "obese patients of Example 6 (FIG. 7)", "from_the_text": "The expression of another cardiovascular risk marker, thrombomodulin, was examined in the patients described in Example 6. […] Similarly to Example 6, the reduction in thrombomodulin was independent of effects on metabolic parameters and body weight."}, "[8]": {"system": "total cholesterol", "assay": "Total cholesterol in rats after four weeks of treatment", "type": "in vivo", "set-up": "Total cholesterol levels, Mean: unit not given here", "details": "for Total cholesterol levels, Mean: vehicle mean 86.7", "procedure": "Rats were administered 1 or 3 mg/kg fumagillol daily for a total of four weeks of treatment."}, "[9]": {"system": "total cholesterol", "assay": "Total cholesterol in human subjects with elevated total cholesterol", "type": "in vivo", "details": "human subjects with initial fasting total cholesterol in excess of 180 mg/dl, twice weekly for four weeks, n=10, p=0.018 (FIG. 3)", "procedure": "Human subjects with initial fasting total cholesterol levels in excess of 180 mg/dl were administered Compound A twice weekly for a total of four weeks of treatment."}, "[10]": {"details": "1 mg/kg po daily for four weeks"}, "[11]": {"details": "3 mg/kg po daily for four weeks"}}, "note": "Values joined by “and” are separate entries in the source; they are usually repeats but may differ in a detail not shown here. Equal entries are not always repeated."}
{"smiles": "CO[C@@H]1[C@H](OC(=O)/C=C/C=C/C=C/C=C/C(=O)O)CC[C@]2(CO2)[C@H]1[C@@]1(C)O[C@@H]1CC=C(C)C", "note": "[fumagillin]", "values": [{"measurement": "FGF-21 absolute numbers, Average of duplicates (single animals)", "setting": "[1]; animals 3.1 to 4.3, one value per animal, listed as ZGN-201", "value": "AQL and 2248.25 pg/ml and 2514.66 pg/ml and 2166.60 pg/ml and 1194.64 pg/ml and 3597.58 pg/ml"}, {"measurement": "FGF-21 MEAN of treated group", "setting": "[1]; vehicle group mean 991.47", "value": 2344.34, "unit": "pg/mL"}, {"measurement": "hepatic PCSK9 mRNA (% of vehicle control)", "setting": "[2]", "value": "reduced PCSK9 expression"}, {"measurement": "hydroxybutyrate concentration at longer time points", "setting": "[3]; DIO C57BL/6 mice, diet admixture 1 mg/kg daily for 250 days (FIG. 1C)", "value": "Increased hydroxybutyrate concentration persisted"}, {"measurement": "beta hydroxybutyrate concentrations", "setting": "[3]; DIO C57BL/6 mice, oral gavage 0.3 or 3 mg/kg daily for 10 days (FIG. 1A)", "value": "increase"}, {"measurement": "free fatty acid concentration", "setting": "[3]; DIO C57BL/6 mice, oral gavage 0.3 or 3 mg/kg daily for 10 days (FIG. 1B)", "value": "without an increase"}, {"measurement": "sensitivity to insulin", "setting": "[3]; mice on a high fat diet", "value": "normalizes"}, {"measurement": "Fasted glucose and insulin levels, insulin-glucose product", "setting": "[3]; mice on high fat diet, 1 mg/kg fumagillin, versus age-matched lean mice and untreated DIO mice (FIG. 2A-2C)", "value": "more similar to that of age-matched lean mice than that of untreated mice on a high fat diet"}]}
{"smiles": "CO[C@@H]1[C@H](OC(=O)C=Cc2ccc(OCCN(C)C)cc2)CC[C@]2(CO2)[C@H]1[C@@]1(C)O[C@@H]1CC=C(C)C.O=C(O)C(=O)O", "note": "[6-O-(4-dimethylaminoethoxyl)cinnamoyl fumagillol oxalate]", "values": [{"measurement": "subjects with elevated CRP concentrations (above 3.0 μg/ml) reduced to levels within the normal range", "setting": "[4]; 0.9 mg/m^2 dose level, by the 26th day of treatment, p<0.01", "value": "six out of eight"}, {"measurement": "levels of C-Reactive Protein (CRP) in patients' serum", "setting": "[4]; obese patients, iv twice weekly for 26 days, 0.1, 0.3 or 0.9 mg/m^2 (FIG. 6)", "value": "decrease"}, {"measurement": "LDL-c levels", "setting": "[5]", "value": "decreases"}, {"measurement": "apoLp(a) levels", "setting": "[6]", "value": "decreases"}, {"measurement": "thrombomodulin levels", "setting": "[7]", "value": "decreases"}]}
{"smiles": "CO[C@@H]1[C@H](O)CC[C@]2(CO2)[C@H]1[C@@]1(C)O[C@@H]1CC=C(C)C", "note": "[Fumagillol, fumagillol]", "values": [{"measurement": "Total cholesterol levels, % of vehicle", "setting": "[8]; [10]", "value": 76.5, "unit": "%"}, {"measurement": "Total cholesterol levels, Mean", "setting": "[8]; [10]", "value": 66.3}, {"measurement": "Total cholesterol levels, % of vehicle", "setting": "[8]; [11]", "value": 63.7, "unit": "%"}, {"measurement": "Total cholesterol levels, Mean", "setting": "[8]; [11]", "value": 55.2}]}
{"smiles": "CO[C@@H]1[C@H](OC(=O)C=Cc2ccc(OCCN(C)C)cc2)CC[C@]2(CO2)[C@H]1[C@@]1(C)O[C@@H]1CC=C(C)C", "note": "[Compound A, O-(4-dimethylaminoethoxycinnamoyl)fumagillol]", "values": [{"measurement": "Total cholesterol levels", "setting": "[9]", "value": "reduced"}]}
